From patent US20090203778A1, “FATTY ACID ANALOGUES, I.E. INCLUDING DHA DERIVATIVES FOR USES AS A MEDICAMENT” (priority 2005, published 2009)

Experiments:
[1] = tested on: adipose prone mice of the C57BL/6J strain; assay: Animal model of metabolic syndrome, adipose prone mice on high-fat diet, 4 months of dietary interventions; format: in vivo; conditions: for Body weight / Body wt. gain / NEFA / Insulin / TAGs: 4 months; for AUCglucose: intraperitoneal glucose tolerance test; for Insulin: plasma; for TAGs: serum
Experimental: An animal model of the metabolic syndrome using the adipose prone mice of the C57BL/6J strain was used to document effects on typical laboratory and pathological anatomical features common for the metabolic syndrome. When given a high fat diet containing about 60% of fat, the animals are getting obese developing high insulin plasma levels, pathological glucose tolerance test, elevated serum triglycerides and non-esterified fatty acids, and fat liver. All experiments were performed on male C57BL/6 mice, either a substrain C57BL/N (supplier: Charles River, Germany, n=160, experiments A-C, see below), or a substrain C57BL/6J (supplier: the Jackson laboratory, Bar Harbor, Me., USA, n=32, experiment D). Total numbers of animals used were higher (n=170 and 36, respectively), because of culling. In the latter case, animals were bred for several generations (<20) at the Institute of Physiology. At the beginning of the treatment, animals were 14-week-old and their body weight range was 23.6-27.1 g. One week before the study start, animals were sorted according to their body weight and assigned to subgroups (n=8) of similar mean body weight. […] The animals eliminated from the study at this stage were sacrificed by cervical dislocation. Complete health check of mice was performed by the supplier Charles River and at the start of study serological tests were performed by ANLAB (Prague, Czech Republic). In addition, regular health checks were performed in the animal house in 3-mo-intervals using sentinel mice and serological examinations (ANLAB). In all the tests, the animals were free of specific pathogens. […] All these compounds were in the form of ethyl esters, provided by Pronova Biocare a.s. in sealed containers. Chemical composition of the PRB-compounds was unknown to the laboratory performing the experiments (Institute of Physiology, Academy of Sciences Prague, Czech Republic). After arrival, the PRB-compound were stored in a refrigerator in original containers. The containers were opened just before preparation of the experimental diets. Diets were kept in plastic bags flushed by nitrogen and stored at −70° C. in small aliquots sufficient for feeding animals for one week. Fresh ratios were given in 2-day intervals or daily. The study was based on 4 individual experiments. […] In each experiment, a subgroup of plain cHF diet-fed mice was included and served as a control. Mice were caged in groups of 4 and fed standard chow diet until 3 mo of age, when animals (n=8-13) were randomly assigned to the different test diets. […] Animals were sacrificed after 4 months on the experimental diets, at 7 mo of age, and the end-point analysis were performed.

[2] = Analysis of intracellular free (non-esterified) fatty acids in liver of animals fed PRB-1; format: in vivo, mice; conditions: liver tissue, 1.5% of the fat content in diet for 8 weeks
Experimental: Liver tissue from animals fed PRB-1 was analysed with respect to free unesterified fatty acids. The animals were recruited from Experiment 4 (pharmacodynamic effects of DHA derivatives in an animal model of metabolic syndrome). The animals had been given DHA (15% of fat content of the diet) or the DHA-derivative (1.5% of the fat content in their diet) for 8 weeks and were supposed to be in a steady-state situation with stable levels of DHA and the DHA-derivative intracellularly. Liver tissue was chosen due to the fact that the metabolisation rate is very high in liver.
The liver samples were homogenized in cold PBS buffer, and extracted immediately with chloroform:methanol (2:1) containing 0.2 mM butylated hydroxytoluene (BHT) using cis-10-heptadecenoic acid as internal standard. […] Total protein content was measured using Bio-Rad method after homogenization.
Agilent 1100 system was used for reverse phase column (Supelco Ascentis C18 column, 25 cm×4.6 mm, i.d. 5 μm) separation within 22 min. […] The column elute was identified and quantified in the negative electrospray ionisation applying multiple reaction monitoring mode by triple tandem quadrapole mass/mass (ABI Qtrap-4000). […] The quadratic regression standard curve was used for quantification after internal standard calibration.

PPARγ = molecular target: T1, PPARγ (Homo sapiens, UniProt P37231); assay: Affinity testing in transfected cells (luciferase release); format: cell-based; conditions: 10 μM, FIG. 3
T1 construct: For full length PPAR transfection studies, each well received 5 μg reporter construct; expressed in transfected cells; host or cells: COS-1 cells (adipocytes transfected with pSG5-PPARγ are also described)
T1 sequence (P37231 1-505): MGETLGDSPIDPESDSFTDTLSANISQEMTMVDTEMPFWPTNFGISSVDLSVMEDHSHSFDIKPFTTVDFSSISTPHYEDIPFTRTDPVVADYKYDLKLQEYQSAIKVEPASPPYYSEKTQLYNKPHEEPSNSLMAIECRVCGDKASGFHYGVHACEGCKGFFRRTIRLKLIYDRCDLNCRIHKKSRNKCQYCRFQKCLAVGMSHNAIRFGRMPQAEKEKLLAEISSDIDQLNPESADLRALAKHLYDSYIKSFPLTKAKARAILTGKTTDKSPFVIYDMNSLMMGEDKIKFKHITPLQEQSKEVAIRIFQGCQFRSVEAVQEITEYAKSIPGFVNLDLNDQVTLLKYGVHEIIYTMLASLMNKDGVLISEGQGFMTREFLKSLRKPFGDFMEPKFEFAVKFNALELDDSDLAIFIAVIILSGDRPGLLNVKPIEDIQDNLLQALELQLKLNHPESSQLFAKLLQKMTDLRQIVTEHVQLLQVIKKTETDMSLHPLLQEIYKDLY
Experimental: Release of luciferase is correlated to transcription of genes. Binding of a ligand to a nuclear receptor such as PPARγ induces transcription of the respective gene thereby releasing luciferase. This technique therefore provides a measure of ligand affinity to the receptor as well as activation of the responsible gene.
Transient transfection of COS-1 cells was performed in 6-well plates as described by Graham and van der Eb (Graham). For full length PPAR transfection studies, each well received 5 μg reporter construct, 2.5 μg pSV-β-galactosidase as an internal control, 0.4 μg pSG5-PPARγ2. The cells were harvested after 72 h, and the luciferase activity was measured according to the protocol (Promega). The luciferase activity was normalised against β-galactosidase activity. The adipocytes were transfected at D11 of differentiation using 16 μL LipofectaminPlus reagent, 4 μl Lipofectamine (Life Technologies Inc.), 0.2 μg pSG5-PPARγ, and 100 ng pTK Renilla luciferase as control of transfection afficiency. […] The luciferase activities were measured as recommended by the manufacturer (Dual Luciferase assay, Promega). […]
Fatty acids (BRL or DHA) and PRB-1 (stock solutions) were solubilized to 0.1 M final concentration in DMSO. […] Luciferase activity was measured using a luminometer (TD-20/20 luminometer; Turner Designs, Sunnycvale, Calif.) and normalized against protein content.

[3] = tested on: liver steatosis in mice fed high fat diet; assay: Testing of DHA derivatives on liver fat (histology); format: in vivo; conditions: eosin-hematoxylin stained liver
From the text: Tissue samples from animals in the experiments with DHA derivatives was histologically analysed. After paraffination, tissue samples from liver, adipose tissue, skeletal muscle, pancreas, and kidney were stained with eosin-hematoxylin.

[4] = 0.15% of fat content of cHF diet
[5] = 0.5% of fat content of cHF diet
[6] = 1.5% of fat content of cHF diet

Row | Structure (SMILES) | Fasted glucose [1, 4] | Body weight [1, 4] | NEFA [1, 4] | AUCglucose [1, 4] | TAGs [1, 4] | Fasted glucose [1, 5] | Body weight [1, 5] | Body wt. gain [1, 5] | NEFA [1, 5] | AUCglucose [1, 5] | Insulin [1, 5] | TAGs [1, 5] | Fasted glucose [1, 6] | Body weight [1, 6] | Body wt. gain [1, 6] | NEFA [1, 6] | TAGs [1, 6] | further results
1 | CC/C=C\C/C=C\C/C=C\C/C=C\C/C=C\C/C=C\CCC(=O)O [DHA, (all-Z)-4,7,10,13,16,19-docosahexaenoic acid] | 141 ± 10 mg/dL | 48.3 ± 0.6 grams | 0.96 ± 0.07 mmol/L | 1477 ± 214 mM × 180 min | 1.50 ± 0.13 mmol/L | 136 ± 8 mg/dL | 46.9 ± 0.7 grams | 22.9 ± 0.7 grams | 0.89 ± 0.03 mmol/L | 1816 ± 182 mM × 180 min | 5.82 ± 0.47 ng/mL | 1.78 ± 0.08 mmol/L | 138 ± 7 mg/dL | 47.1 ± 0.7 grams | 23.0 ± 0.8 grams | 0.98 ± 0.07 mmol/L | 1.91 ± 0.26 mmol/L | Body wt. gain [1, 4]: 24.3 ± 0.8 grams; Insulin [1, 4]: 4.31 ± 0.39 ng/mL; AUCglucose [1, 6]: 2132 ± 288 mM × 180 min; Insulin [1, 6]: 6.55 ± 0.31 ng/mL
2 | CC/C=C\C/C=C\C/C=C\C/C=C\C/C=C\C/C=C\CC(C)C(=O)OCC (stereo not drawn) [PRB-1, α-methyl DHA EE] | 126 ± 15 mg/dL | 47.2 ± 1.3 grams | 0.62 ± 0.04 mmol/L | 1291 ± 172 mM × 180 min | 1.75 ± 0.08 mmol/L | 131 ± 7 mg/dL | 47.4 ± 0.6 grams | 23.8 ± 0.5 grams | 0.73 ± 0.04 mmol/L | 1596 ± 205 mM × 180 min | 3.93 ± 0.59 ng/mL | 2.03 ± 0.22 mmol/L | 130 ± 14 mg/dL | 44.0 ± 1.5 grams | 20.2 ± 1.3 grams | 0.63 ± 0.03 mmol/L | 1.58 ± 0.08 mmol/L | concentration of the DHA-derivative (free unesterified fatty acid) in the liver cells [2]: about 10 μg per g of total amount of protein; release of luciferase from transfected cells (PPARγ): high release of luciferase; degree of fat liver (liver steatosis), histology [3]: low degree of fat liver
